# In patent US20070167427A1, “1,2,4-Triazolo[4,3-a]pyridines useful in the treatment of gastrointestinal disorders” (Altana Pharma AG, priority 2004, published 2007):
# What was measured:
# [1] = tested on: pentagastrin-stimulated acid secretion of the perfused rat stomach; assay: Secretion-inhibiting action on the perfused rat stomach (pentagastrin-stimulated acid secretion, intraduodenal administration in vivo); settings: anesthetized female CD rat, dose 1.0 μmol/kg i.d.
# Source text: Testing of the Secretion-inhibiting Action on the Perfused Rat Stomach
# In Table A which follows, the influence of the compounds according to the invention on the pentagastrin-stimulated acid secretion of the perfused rat stomach after intraduodenal administration in vivo is shown.
# The abdomen of anesthetized rats (CD rat, female, 200-250 g; 1.5 g/kg i.m. urethane) was opened after tracheotomy by a median upper abdominal incision and a PVC catheter was fixed transorally in the esophagus and another via the pylorus such that the ends of the tubes just projected into the gastric lumen. The catheter leading from the pylorus led outward into the right abdominal wall through a side opening.
# After thorough rinsing (about 50-100 ml), warm (37° C.) physiological NaCl solution was continuously passed through the stomach (0.5 ml/min, pH 6.8-6.9; Braun-Unita I). The pH (pH meter 632, glass electrode EA 147; φ=5 mm, Metrohm) and, by titration with a freshly prepared 0.01N NaOH solution to pH 7 (Dosimat 665 Metrohm), the secreted HCl were determined in the effluent in each case collected at an interval of 15 minutes.
# The gastric secretion was stimulated by continuous infusion of […] (=1.65 ml/h) of i.v. pentagastrin (left femoral vein) about 30 min after the end of the operation (i.e. after determination of 2 preliminary fractions). […]
melting point [°C],Compound,Inhibition of acid secretion [1] [%]
201.3,"CCc1cccc(C)c1CNc1cc(C(=O)N(C)C)cn2c(C)nnc12 [Example 3, 8-(2-Ethyl-6-methylbenzylamino)-N,N,3-trimethyl[1,2,4]triazolo[4,3-a]pyridine-6-carboxamide]",>30
328.1,"CCc1cccc(C)c1CNc1cc(C(=O)O)cn2c(C)nnc12 [Example 2, 8-(2-Ethyl-6-methyl-benzylamino)-3-methyl[1,2,4]triazolo[4,3-a]pyridine-6-carboxylic acid]",–
214.4,"CCc1cccc(C)c1CNc1cc(C(=O)OC)cn2c(C)nnc12 [Example 1, 8-(2-Ethyl-6-methyl-benzylamino)-3-methyl[1,2,4]triazolo[4,3-a]pyridine-6-carboxylic acid methyl ester]",–
–,"CCc1cccc(C)c1CNc1cc(C(=O)NCCOC)cn2c(C)nnc12 [Example 4, 8-(2-Ethyl-6-methylbenzylamino)-N-(2-methoxyethyl)-3-methyl[1,2,4]triazolo-[4,3-a]pyridine-6-arboxamide]",>30
